In patent EP4722219A1 (Gan & Lee Pharmaceuticals Co., Ltd., priority 2023, dated 2024):

Assays:
Assay type in all cases: cell-based
T-47D cells = experiment: Inhibition of cell proliferation in T-47D cells (CCK-8); conditions: 6 days treatment, CCK-8 cell viability
Summary of the method: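 T-47D cells (3,000/well) in RPMI-1640 with 10% FBS were exposed to a concentration range of PROTAC compounds for 6 days at 37 °C, 5% CO2. Viability read by CCK-8; IC50 fitted from inhibition rate.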

MCF-7 cells = experiment: Inhibition of cell proliferation in MCF-7 cells (CCK-8); conditions: MCF-7 cell proliferation, 6 days treatment
Summary of the method: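 MCF-7 cells, 800 per well in DMEM plus 10% FBS, exposed to graded PROTAC concentrations for 6 days at 37 °C, 5% CO2. Viability by CCK-8; IC50 fitted from inhibition rates.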

ERα [1] = biological target: T1, ERα (Homo sapiens, UniProt P03372); experiment: ERα degradation in T-47D cells (Western blot); conditions: 4 hours
T1 sequence (P03372 1-595): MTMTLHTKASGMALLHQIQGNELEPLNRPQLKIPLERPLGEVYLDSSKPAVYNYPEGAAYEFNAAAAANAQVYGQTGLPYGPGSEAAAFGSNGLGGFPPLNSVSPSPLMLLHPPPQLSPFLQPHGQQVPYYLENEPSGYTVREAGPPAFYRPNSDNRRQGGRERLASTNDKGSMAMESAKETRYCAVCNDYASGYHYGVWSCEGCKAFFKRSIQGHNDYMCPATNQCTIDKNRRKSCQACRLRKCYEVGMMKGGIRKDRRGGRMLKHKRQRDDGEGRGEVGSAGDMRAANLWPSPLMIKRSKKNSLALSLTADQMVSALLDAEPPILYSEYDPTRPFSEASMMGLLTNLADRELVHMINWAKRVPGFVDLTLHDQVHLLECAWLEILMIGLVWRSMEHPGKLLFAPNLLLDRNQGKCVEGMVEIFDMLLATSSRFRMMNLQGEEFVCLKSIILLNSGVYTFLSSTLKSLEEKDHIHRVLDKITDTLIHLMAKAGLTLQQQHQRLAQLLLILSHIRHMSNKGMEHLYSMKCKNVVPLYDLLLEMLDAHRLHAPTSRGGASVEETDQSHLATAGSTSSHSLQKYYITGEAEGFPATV
Summary of the method: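 T-47D cells at 3×10^5 cells/well were exposed to compound (final 0.15-1000 nM, DMSO) for 4 hours at 37°C and then lysed in RIPA. ERα was measured by Western blot (20 µg protein) with infrared imaging. The degradation rate was calculated from ERα/internal-reference grayscale ratios relative to control.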

ERα [2] = biological target: T1, ERα; experiment: ERα degradation in MCF-7 cells (Western blot); parameters: host or cells: MCF-7; conditions: 4 hours
Summary of the method: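 MCF-7 cells treated 4 h at 37 °C with compound at 0.15–1000 nM final. ERα in lysates measured by Western blot (20 µg protein), normalized to an internal reference protein; degradation rate calculated against control.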

IC50 (T-47D cells) [nM] | IC50 (MCF-7 cells) [nM] | Compound | IC50 (T-47D cells; Homo sapiens, T47D, 144 h) [nM] | IC50 (MCF-7 cells; Homo sapiens, MCF7, 144 h) [nM] | Degradation rate of ERα in T-47D cells (%) (ERα [1]; 1nM) | Degradation rate of ERα in T-47D cells (%) (ERα [1]; 10nM) | Degradation rate of ERα in MCF-7 cells (%) (ERα [2]; 1nM) | Degradation rate of ERα in MCF-7 cells (%) (ERα [2]; 10nM)
1.47 | 8430 | (S)-N-((S)-2,6-dioxopiperidin-3-yl)-3-(((1S,4R)-4-((1-(4-((1R,2S)-6-hydroxy-2-phenyl-1,2,3,4-tetrahydronaphthalen-1-yl)phenyl)piperidin-4-yl)oxy)cyclohexyl)methy l)-1,2,3,4,4a,5-hexahydrobenzo[b]pyrazi no[1,2-d][1,4]oxazine-8-carboxamide [ER-P-47] | – | – | -14 | 25 | 21 | 26
1.48 | 1630 | O=C1CC[C@H](NC(=O)c2ccc3c(c2)OCC[C@H]2CN(CC4CCC(OC5CCN(c6ccc([C@@H]7c8ccc(O)cc8CC[C@@H]7c7ccccc7)cc6)CC5)CC4)CCN32)C(=O)N1 (stereo partly drawn) [ER-P-45, (S)-N-((S)-2,6-dioxopiperidin-3-yl)-3-((4-((1-(4-((1R,2S)-6-hydroxy-2-phenyl-1,2,3,4-tetrahydronaphthalen-1-yl)phenyl)piperidin-4-yl)oxy)cyclohexyl)methyl)-2,3,4,4a,5,6-hexahydro-1H-benzo[b]pyrazino[1,2-d][1,4]oxazepine-9-carboxamide] | – | – | -5 | -3 | -15 | -24

The next lines start with the compound.

Compound | IC50 (T-47D cells) [nM] | IC50 (MCF-7 cells) [nM] | IC50 (T-47D cells; Homo sapiens, T47D, 144 h) [nM] | IC50 (MCF-7 cells; Homo sapiens, MCF7, 144 h) [nM] | Degradation rate of ERα in T-47D cells (%) (ERα [1]; 1nM) | Degradation rate of ERα in T-47D cells (%) (ERα [1]; 10nM) | Degradation rate of ERα in MCF-7 cells (%) (ERα [2]; 1nM) | Degradation rate of ERα in MCF-7 cells (%) (ERα [2]; 10nM)
Cn1c(=O)n(C2CCC(=O)NC2=O)c2cc3c(cc21)C1(CCN(CC2CCN(c4ccc([C@@H]5c6ccc(O)cc6CC[C@@H]5c5ccccc5)cc4)CC2)CC1)CO3 (stereo partly drawn) [ER-P-24, 3-(1'-((1-(4-((1R,2S)-6-hydroxy-2-phenyl-1,2,3,4-tetrahydronaphthalen-1-yl)phenyl)piperidin-4-yl)methyl)-1-methyl-2-oxo-1,2-dihydro-3H,6H-spiro[benzofuro[5,6-d]imidazole-7,4'-piperidin]-3-yl)piperidine-2,6-dione] | – | – | 19.2 | 1070 | -16 | -49 | -68 | -39
C[C@@H]1Cc2cc(O)ccc2C(c2c(F)cc(N3CCC4(CCC(N5CCC6(CC5)COc5c6ccc6c5n(C)c(=O)n6C5CCC(=O)NC5=O)CC4)CC3)cc2F)N1CC(F)F (stereo partly drawn) [ER-P-29, 3-(1'-(3-(4-((3R)-2-(2,2-difluoroethyl)-6-hydroxy-3-methyl-1,2,3,4-tetrahydroisoquinolin-1-yl)-3,5-difluorophenyl)-3-azaspiro[5.5]undecan-9-yl)-1-methyl-2-oxo-1,2-dihydro-3H,7H-spiro[benzofuro[6,7-d]imidazole-6,4'-piperidin]-3-yl)piperidine-2,6-dione] | – | – | 0.92 | 140 | 53 | 41 | 54 | 25
Cn1c(=O)n(C2CCC(=O)NC2=O)c2ccc3c(c21)OCC31CCN(C(=O)C2CN(CC3CCN(c4ccc([C@@H]5c6ccc(O)cc6CC[C@@H]5c5ccccc5)cc4)CC3)C2)CC1 (stereo partly drawn) [ER-P-25, 3-(1'-(1-((1-(4-((1R,2S)-6-hydroxy-2-phenyl-1,2,3,4-tetrahydronaphthalen-1-yl)phenyl)piperidin-4-yl)methyl)azetidine-3-carbonyl)-1-methyl-2-oxo-1,2-dihydro-3H,7H-spiro[benzofuro[6,7-d]imidazole-6,4'-piperidin]-3-yl)piperidine-2,6-dione] | – | – | 0.84 | 1.26 | 77 | 71 | 49 | 53
O=C1CCC(N2Cc3c(ccc4c3OCC43CCC4(CCN(C5CCC6(CC5)CCN(c5ccc([C@@H]7c8ccc(O)cc8CC[C@@H]7c7ccccc7)cc5)CC6)CC4)CC3)C2=O)C(=O)N1 (stereo partly drawn) [ER-P-57] | – | – | 3.19 | 12.7 | 12 | 68 | 3 | 62
O=C1CCC(N2Cc3c(ccc4c3OCC43CCC4(CCN(CC5CCN(c6ccc([C@@H]7c8ccc(O)cc8CC[C@@H]7c7ccccc7)cc6)CC5)CC4)CC3)C2=O)C(=O)N1 (stereo partly drawn) [ER-P-1, 3-(1"-((1-(4-((1R,2S)-6-hydroxy-2-phenyl-1,2,3,4-tetrahydronaphthalen-1-yl)phenyl)piperidin-4-yl)methyl)-6-oxo-6,8-dihydro-2H,7H-dipyrazole[furo[2,3-e]isoindole-3,1'-cyclohexane-4',4'-piperidin]-7-yl)piperidine-2,6-dione] | – | – | 3.74 | < 0.256 | 52 | 81 | 19 | 44
CN(C(=O)CN1CCC2(CC1)COc1c2ccc(F)c1C(=O)N[C@H]1CCC(=O)NC1=O)C1CCC2(CC1)CN(c1ccc([C@@H]3c4ccc(O)cc4CC[C@@H]3c3ccccc3)cc1)C2 [ER-P-40, N-((S)-2,6-dioxopiperidin-3-yl)-6-fluoro-1'-(2-((2-(4-((1R,2S)-6-hydroxy-2-phenyl-1,2,3,4-tetrahydronaphthalen-1-yl)phenyl)-2-azaspiro[3.5]nonan-7-yl)(methyl)amino)-2-oxoethyl)-2H-spiro[benzofuran-3,4'-piperidine]-7-carboxamide] | – | – | 28.4 | 6210 | 22 | 34 | -10 | -53
Cn1c(=O)n(C2CCC(=O)NC2=O)c2cc3c(cc21)C1(CCN(C2CCN(C(=O)C4CCN(c5ccc([C@@H]6c7ccc(O)cc7CC[C@@H]6c6ccccc6)cc5)CC4)CC2)CC1)CO3 (stereo partly drawn) [ER-P-14, 3-(1'-(1-(1-(4-((1R,2S)-6-hydroxy-2-phenyl-1,2,3,4-tetrahydronaphthalen-1-yl)phenyl)piperidine-4-carbonyl)piperidin-4-yl)-1-methyl-2-oxo-1,2-dihydro-3H,6H-spiro[benzofuro[5,6-d]imidazole-7,4'-piperidin]-3-yl)piperidine-2,6-dione] | – | – | 0.81 | 34.6 | 64 | 61 | 69 | 63
O=C1CCC(N2Cc3c(ccc4c3OCC43CCC4(CC3)CN(C(=O)C3CCN(c5ccc([C@@H]6c7ccc(O)cc7CC[C@@H]6c6ccccc6)cc5)CC3)C4)C2=O)C(=O)N1 (stereo partly drawn) [ER-P-4, 3-(1-(1-(4-(((1R,2S)-6-hydroxy-2-phenyl-1,2,3,4-tetrahydronaphthalen-1-yl)phenyl)piperidine-4-carbonyl)-6'-oxo-6',8'-dihydro-2'H,7'H-diazetidine-3,1'-cyclohexane-4',3"-furo[2,3-e]isoindol]-7'-yl)piperidine-2,6-dione] | – | – | 3.63 | 92000 | 21 | 54 | 9 | 20
O=C1CCC(N2Cc3c(ccc4c3OCC43CCC4(CCN(C5CCN(C(=O)C6CCN(c7ccc([C@@H]8c9ccc(O)cc9CC[C@@H]8c8ccccc8)cc7)CC6)CC5)CC4)CC3)C2=O)C(=O)N1 (stereo partly drawn) [ER-P-5] | – | – | 0.96 | < 0.256 | 39 | 79 | 25 | 57
Cn1c(=O)n(C2CCC(=O)NC2=O)c2cc3c(cc21)OC1(CC3)CCN(C[C@H]2CC[C@@H](OC3CCN(c4ccc([C@@H]5c6ccc(O)cc6CC[C@@H]5c5ccccc5)cc4)CC3)CC2)CC1 (stereo partly drawn) [ER-P-65, 3-(1'-(((1S,4S)-4-((1-(4-((1R,2S)-6-hydroxy-2-phenyl-1,2,3,4-tetrahydronaphthalen-1-yl)phenyl)piperidin-4-yl)oxy)cyclohexyl)methyl)-3-methyl-2-oxo-2,3,7,8-tetrahydro-1H-spiro[benzopyrano[6,7-d]imidazole-6,4'-piperidin]-1-yl)piperidine-2,6-dione] | – | – | 7.34 | 261 | 20 | 77 | 21 | 62
